# Measured values published in patent US6525001B1, “Substituted pyrimidine and pyridine herbicides” (Mid-American Commercialization Corporation, priority 1997, dated 2003).
# How the values were obtained:
# Assay in all cases: Test B pre-/postemergence
# Type in all cases: in vivo
# Set-up in all cases: key: 0 is no effect; 10 is complete control
# [1] = tested on: wheat (Triticum aestivum)
# Summary of the method: (§1)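 Response scores run from 0, meaning no effect, to 10, meaning complete control, assigned by eye relative to controls twelve to sixteen days after spraying. Treatment was both preemergence on planted seed and postemergence on plants at the 1- to 4-leaf stage.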
# corn (Zea mays) = tested on: corn (Zea mays)
# Summary of the method: as §1
# [2] = tested on: sugar beet (Beta vulgaris)
# Summary of the method: as §1
# [3] = tested on: cocklebur (Xanthium strumarium)
# Summary of the method: as §1
# [4] = tested on: bedstraw (Galium aparine)
# Summary of the method: as §1
# rape (Brassica napus) = tested on: rape (Brassica napus)
# Summary of the method: as §1
# soybean (Glycine max) = tested on: soybean (Glycine max)
# Summary of the method: as §1
# [5] = tested on: velvetleaf (Abutilon theophrasti)
# Summary of the method: as §1
# [6] = tested on: purple nutsedge (Cyperus rotundus)
# Summary of the method: as §1
# [7] = tested on: momingglory (Ipomoea hederacea)
# Summary of the method: as §1
# [8] = tested on: crabgrass (Digitaria sanguinalis)
# Summary of the method: as §1
# [9] = tested on: pigweed (Amaranthus retroflexus)
# Summary of the method: as §1
# [10] = tested on: giant foxtail (Setaria faberii)
# Summary of the method: as §1
# [11] = tested on: broadleaf signalgrass (Brachiaria decumbens)
# Summary of the method: as §1
smiles,measurement,setting,value
Cc1cnc(-n2cnc(C(F)(F)F)n2)nc1Cn1ccc(C(F)(F)F)n1 [Compound 51],Wheat plant response rating,"[1]; Rate 62 g/ha, Postemergence",6
same,Wheat plant response rating,"[1]; Rate 62 g/ha, Preemergence",0
same,Wheat plant response rating,"[1]; Rate 125 g/ha, Postemergence",9
same,"Plant response rating, Wheat","[1]; Rate 125 g/ha, Preemergence",3
same,"Plant response rating, Wheat","[1]; Rate 250 g/ha, Postemergence",9
same,"Plant response rating, Wheat","[1]; Rate 250 g/ha, Preemergence",5
same,"Plant response rating, Corn","corn (Zea mays); Rate 62 g/ha, Postemergence",7
same,Corn plant response rating,"corn (Zea mays); Rate 62 g/ha, Preemergence",4
same,Corn plant response rating,"corn (Zea mays); Rate 125 g/ha, Postemergence",8
same,"Plant response rating, Corn","corn (Zea mays); Rate 125 g/ha, Preemergence",8
same,"Plant response rating, Corn","corn (Zea mays); Rate 250 g/ha, Postemergence",9
same,"Plant response rating, Corn","corn (Zea mays); Rate 250 g/ha, Preemergence",8
same,"Plant response rating, Sugarbeets","[2]; Rate 62 g/ha, Postemergence",10
same,Sugarbeets plant response rating,"[2]; Rate 62 g/ha, Preemergence",10
same,Sugarbeets plant response rating,"[2]; Rate 125 g/ha, Postemergence",10
same,"Plant response rating, Sugarbeets","[2]; Rate 125 g/ha, Preemergence",10
same,"Plant response rating, Sugarbeets","[2]; Rate 250 g/ha, Postemergence",10
same,"Plant response rating, Sugarbeets","[2]; Rate 250 g/ha, Preemergence",10
same,"Plant response rating, Cocklebur","[3]; Rate 62 g/ha, Postemergence",6
same,Cocklebur plant response rating,"[3]; Rate 62 g/ha, Preemergence",3
same,Cocklebur plant response rating,"[3]; Rate 125 g/ha, Postemergence",9
same,"Plant response rating, Cocklebur","[3]; Rate 125 g/ha, Preemergence",10
same,"Plant response rating, Cocklebur","[3]; Rate 250 g/ha, Postemergence",9
same,"Plant response rating, Cocklebur","[3]; Rate 250 g/ha, Preemergence",10
same,"Plant response rating, Bedstraw","[4]; Rate 62 g/ha, Postemergence",9
same,Bedstraw plant response rating,"[4]; Rate 62 g/ha, Preemergence",8
same,Bedstraw plant response rating,"[4]; Rate 125 g/ha, Postemergence",10
same,"Plant response rating, Bedstraw","[4]; Rate 125 g/ha, Preemergence",10
same,"Plant response rating, Bedstraw","[4]; Rate 250 g/ha, Postemergence",10
same,"Plant response rating, Bedstraw","[4]; Rate 250 g/ha, Preemergence",9
same,"Plant response rating, Rape","rape (Brassica napus); Rate 62 g/ha, Postemergence",9
same,Rape plant response rating,"rape (Brassica napus); Rate 62 g/ha, Preemergence",10
same,Rape plant response rating,"rape (Brassica napus); Rate 125 g/ha, Postemergence",9
same,"Plant response rating, Rape","rape (Brassica napus); Rate 125 g/ha, Preemergence",10
same,"Plant response rating, Rape","rape (Brassica napus); Rate 250 g/ha, Postemergence",10
same,"Plant response rating, Rape","rape (Brassica napus); Rate 250 g/ha, Preemergence",10
same,"Plant response rating, Soybean","soybean (Glycine max); Rate 62 g/ha, Postemergence",9
same,Soybean plant response rating,"soybean (Glycine max); Rate 62 g/ha, Preemergence",9
same,Soybean plant response rating,"soybean (Glycine max); Rate 125 g/ha, Postemergence",9
same,"Plant response rating, Soybean","soybean (Glycine max); Rate 125 g/ha, Preemergence",9
same,"Plant response rating, Soybean","soybean (Glycine max); Rate 250 g/ha, Postemergence",10
same,"Plant response rating, Soybean","soybean (Glycine max); Rate 250 g/ha, Preemergence",9
same,"Plant response rating, Velvetleaf","[5]; Rate 62 g/ha, Postemergence",7
same,Velvetleaf plant response rating,"[5]; Rate 62 g/ha, Preemergence",10
same,Velvetleaf plant response rating,"[5]; Rate 125 g/ha, Postemergence",8
same,"Plant response rating, Velvetleaf","[5]; Rate 125 g/ha, Preemergence",10
same,"Plant response rating, Velvetleaf","[5]; Rate 250 g/ha, Postemergence",9
same,"Plant response rating, Velvetleaf","[5]; Rate 250 g/ha, Preemergence",10
same,"Plant response rating, Nutsedge","[6]; Rate 62 g/ha, Postemergence",7
same,Nutsedge plant response rating,"[6]; Rate 62 g/ha, Preemergence",3
same,"Plant response rating, Nutsedge","[6]; Rate 125 g/ha, Preemergence",9
same,"Plant response rating, Morningglory","[7]; Rate 62 g/ha, Postemergence",10
same,Morningglory plant response rating,"[7]; Rate 62 g/ha, Preemergence",10
same,Morningglory plant response rating,"[7]; Rate 125 g/ha, Postemergence",10
same,"Plant response rating, Morningglory","[7]; Rate 125 g/ha, Preemergence",10
same,"Plant response rating, Morningglory","[7]; Rate 250 g/ha, Postemergence",10
same,"Plant response rating, Morningglory","[7]; Rate 250 g/ha, Preemergence",10
same,"Plant response rating, Crabgrass","[8]; Rate 62 g/ha, Postemergence",9
same,Crabgrass plant response rating,"[8]; Rate 62 g/ha, Preemergence",10
same,Crabgrass plant response rating,"[8]; Rate 125 g/ha, Postemergence",10
same,"Plant response rating, Crabgrass","[8]; Rate 125 g/ha, Preemergence",10
same,"Plant response rating, Crabgrass","[8]; Rate 250 g/ha, Postemergence",10
same,"Plant response rating, Crabgrass","[8]; Rate 250 g/ha, Preemergence",10
same,"Plant response rating, Redroot pigweed","[9]; Rate 62 g/ha, Postemergence",10
same,Redroot pigweed plant response rating,"[9]; Rate 62 g/ha, Preemergence",10
same,Redroot pigweed plant response rating,"[9]; Rate 125 g/ha, Postemergence",10
same,"Plant response rating, Redroot pigweed","[9]; Rate 125 g/ha, Preemergence",10
same,"Plant response rating, Redroot pigweed","[9]; Rate 250 g/ha, Postemergence",10
same,"Plant response rating, Redroot pigweed","[9]; Rate 250 g/ha, Preemergence",10
same,"Plant response rating, Giant foxtail","[10]; Rate 62 g/ha, Postemergence",8
same,Giant foxtail plant response rating,"[10]; Rate 62 g/ha, Preemergence",8
same,Giant foxtail plant response rating,"[10]; Rate 125 g/ha, Postemergence",10
same,"Plant response rating, Giant foxtail","[10]; Rate 125 g/ha, Preemergence",10
same,"Plant response rating, Giant foxtail","[10]; Rate 250 g/ha, Postemergence",10
same,"Plant response rating, Giant foxtail","[10]; Rate 250 g/ha, Preemergence",10
same,"Plant response rating, B. signalgrass","[11]; Rate 62 g/ha, Postemergence",2
same,B. signalgrass plant response rating,"[11]; Rate 62 g/ha, Preemergence",4
same,B. signalgrass plant response rating,"[11]; Rate 125 g/ha, Postemergence",8
same,"Plant response rating, B. signalgrass","[11]; Rate 125 g/ha, Preemergence",9
same,"Plant response rating, B. signalgrass","[11]; Rate 250 g/ha, Postemergence",9
same,"Plant response rating, B. signalgrass","[11]; Rate 250 g/ha, Preemergence",9
